The subject of data set [1] is HBV. Description: HBV inhibitory activity: HBV DNA in the culture medium of HepG2.2.15 cells by q-PCR. It counts as cell-based. Particulars: Hepatitis B virus, HepG2.2.15, 144 h, HepG2.2.15 cells, 6 days of compound treatment, HBV DNA in culture medium by q-PCR, highest concentration 10 μM; read-out: EC50. In a few lines: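 HepG2.2.15 cells in 2% FBS medium, 40,000 per well, treated 6 days with compound (medium refreshed once), eight 3-fold dilutions from 10 μM top. HBV DNA extracted from culture medium and quantified by q-PCR; EC50 averaged over repeats. Cytotoxicity run in parallel at 5,000 cells per well, top 100 μM, giving CC50.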

Data set [2] is described as follows: Cytotoxicity determination in HepG2.2.15 cells (CCK-8). It counts as cell-based. The settings on record: human, 6 days of compound treatment, CCK-8, highest concentration 100 μM. Put shortly:
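HepG2.2.15 cells seeded at 5,000 cells/well in 2% FBS medium, incubated overnight at 37° C., then treated 6 days with compounds (8 points, 3-fold dilutions, top 100 μM), medium refreshed once midway. CCK-8 added for 2.5 h; A450 read against 630 nm reference; CC50 calculated, averaged over repeats.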

The EC50 is the concentration at which the effect is half-maximal. As a reminder, the CC50 is the concentration at which the toxic effect on the cells reaches its halfway point. A lower CC50 goes with harm at low concentration.

`COC(=O)C1=C(C2CCN(S(C)(=O)=O)CC2)NC(c2nccs2)=NC1c1ccc(F)cc1Cl` (stereo not drawn) [Compound 103, Methyl 4-(2-chloro-4-fluorophenyl)-6-(1-(methylsulfonyl)-piperidin-4-yl)-2-(thiazol-2-yl)-1,4-dihydropyrimidine-5-carboxylate]: the concentration for a half-maximal effect (EC50) in data set [1] came to 501 nM. In data set [2], this molecule registered a CC50 at 6 days of 87 µM.

Turning to `COCCOCCOCCS(=O)(=O)N1CCC(C2=C(C(=O)OC)C(c3ccc(F)cc3Cl)N=C(c3nccs3)N2)CC1` (stereo not drawn) [Compound 459, Methyl 4-(2-chloro-4-fluorophenyl)-6-(1-((2-(2-(2-methoxyethoxy)ethoxy)ethyl)sulfonyl)piperidin-4-yl)-2-(thiazol-2-yl)-1,4-dihydropyrimidine-5-carboxylate], the EC50 in data set [1] came to 41 nM. In addition, in data set [2], the midpoint of cytotoxicity, the CC50 at 6 days, lay at 93.5 µM.

As for `COC(=O)C1=C(C2CCN(S(=O)(=O)CC(C)(C)C(=O)O)CC2)NC(c2nccs2)=NC1c1ccc(F)cc1Cl` (stereo not drawn) [Compound 223, 3-((4-(6-(2-Chloro-4-fluorophenyl)-5-(methoxycarbonyl)-2-(thiazol-2-yl)-3,6-dihydropyrimidin-4-yl)piperidin-1-yl)sulfonyl)-2,2-dimethylpropanoic Acid], the EC50 in data set [1] stood at 145 nM. Also, half-maximal cytotoxicity in data set [2] (CC50 at 6 days) was put at 50 µM.

Turning to `COC(=O)C1=C(C2C3CCC2CN(S(C)(=O)=O)C3)NC(c2nccs2)=NC1c1cccc(F)c1Cl` (single isomer, unassigned) [Compound 37B, Methyl 4-(2-chloro-3-fluorophenyl)-6-(3-(methylsulfonyl)-3-azabicyclo[3.2.1]octan-8-yl)-2-(thiazol-2-yl)-1,4-dihydropyrimidine-5-carboxylate], the EC50 in data set [1] came to 129 nM. Besides, the CC50 at 6 days in data set [2] came to 5.9 µM.

Consider `COC(=O)C1=C(C23CC(NS(=O)(=O)C4CNC4)(C2)C3)NC(c2nccs2)=NC1c1ccc(F)c(F)c1Cl` (stereo not drawn) [Compound 406, Methyl 6-(3-(azetidine-3-sulfonamido)bicyclo[1.1.1]pentan-1-yl)-4-(2-chloro-3,4-difluorophenyl)-2-(thiazol-2-yl)-1,4-dihydropyrimidine-5-carboxylate], for which the EC50 in data set [1] was 600 nM. Also, in data set [2], the CC50 at 6 days was 5.6 µM.

With `CCOC(=O)C1=C(C2CCN(S(=O)(=O)[C@H]3C[C@H](C(=O)O)C3)CC2)NC(c2c(F)cc(F)cc2F)=NC1c1ccc(F)c(F)c1Cl` (stereo partly drawn) [Compound 195A, (trans)-3-((4-(6-(2-Chloro-3,4-difluorophenyl)-5-(ethoxycarbonyl)-2-(2,4,6-trifluorophenyl)-3,6-dihydropyrimidin-4-yl)piperidin-1-yl)sulfonyl)cyclobutanecarboxylic Acid], the EC50 in data set [1] stood at 84 nM. The CC50 at 6 days in data set [2] was found to be 43.9 µM.

Take `COC(=O)C1=C([C@H]2CC[C@@H](NS(C)(=O)=O)CC2)NC(c2nccs2)=NC1c1ccc(F)cc1Cl` (single isomer, unassigned) [Compound 128D, Methyl 4-(2-chloro-4-fluorophenyl)-6-(cis-4-(methylsulfonamido)-cyclohexyl)-2-(thiazol-2-yl)-1,4-dihydropyrimidine-5-carboxylate]: the EC50 in data set [1] turned out to be 17 nM. The midpoint of cytotoxicity in data set [2], the CC50 at 6 days, lay at 22.8 µM.

Consider `COCCOCCOCCS(=O)(=O)NC12CC(C3=C(C(=O)OC)C(c4ccc(F)cc4Cl)N=C(c4nccs4)N3)(C1)C2` (stereo not drawn) [Compound 440b, Methyl 4-(2-chloro-4-fluorophenyl)-6-(3-(2-(2-(2-methoxyethoxy)ethoxy)ethylsulfonamido)bicyclo[1.1.1]pentan-1-yl)-2-(thiazol-2-yl)-1,4-dihydropyrimidine-5-carboxylate], for which the EC50 in data set [1] turned out to be 13 nM. For the same molecule, the CC50 at 6 days in data set [2] was found to be 82.9 µM.

On to `COC(=O)C1=C([C@H]2CC[C@H](C(=O)OC)CC2)NC(c2nccs2)=NC1c1ccc(F)cc1Br` (relative stereo) [Compound 224, (trans)-Methyl 4-(2-bromo-4-fluorophenyl)-6-(4-(methoxycarbonyl)cyclohexyl)-2-(thiazol-2-yl)-1,4-dihydropyrimidine-5-carboxylate], for which the EC50 in data set [1] was found to be 71 nM. Also, the CC50 at 6 days in data set [2] amounted to 28.4 µM.

On to `COC(=O)C1=C(C2CCN(S(=O)(=O)[C@@H]3CC[C@H](C(=O)O)C3)CC2)NC(c2nccs2)=NC1c1ccc(F)cc1Cl` (relative stereo) [Compound 311B, (cis)-3-((4-(6-(2-Chloro-4-fluorophenyl)-5-(methoxycarbonyl)-2-(thiazol-2-yl)-3,6-dihydropyrimidin-4-yl)piperidin-1-yl)sulfonyl)-cyclopentanecarboxylic Acid], for which, in data set [1], the EC50 was found to be 97 nM. In data set [2], the cytotoxic concentration (CC50) at 6 days was over 100 µM.

Consider `COC(=O)C1=C(C2CCN(S(=O)(=O)C(C)(C)C(=O)O)CC2)NC(c2nccs2)=NC1c1ccc(F)cc1Cl` (stereo not drawn) [Compound 7, 2-((4-(6-(2-Chloro-4-fluorophenyl)-5-(methoxycarbonyl)-2-(thiazol-2-yl)-3,6-dihydro-pyrimidin-4-yl)piperidin-1-yl)sulfonyl)-2-methylpropanoic Acid], for which the EC50 in data set [1] was 168 nM. For the same molecule, the CC50 at 6 days in data set [2] is over 100 µM.

Turning to `COC(=O)C1=C(C2CCN(S(=O)(=O)CCC(=O)O)CC2)NC(c2nccs2)=NC1c1ccc(F)cc1Cl` (stereo not drawn) [Compound 105, 3-((4-(6-(2-Chloro-4-fluorophenyl)-5-(methoxycarbonyl)-2-(thiazol-2-yl)-3,6-dihydropyrimidin-4-yl)piperidin-1-yl)sulfonyl)propanoic Acid], in data set [1], the EC50 amounted to 150 nM. In data set [2], the CC50 at 6 days was 14.4 µM.

Take `COC(=O)C1=C([C@H]2CC[C@H](S(=O)(=O)NCCC(C)(C)O)CC2)NC(c2nccs2)=NC1c1ccc(F)c(F)c1Cl` (stereo partly drawn) [Compound 358B, (trans)-Methyl 4-(2-chloro-3,4-difluorophenyl)-6-(4-(N-(3-hydroxy-3-methylbutyl)sulfamoyl)cyclohexyl)-2-(thiazol-2-yl)-1,4-dihydropyrimidine-5-carboxylate]: the EC50 in data set [1] was found to be 59 nM. In data set [2], this molecule had a CC50 at 6 days of 12.5 µM.

Take `COC(=O)C1=C(C2CCN(S(=O)(=O)C[C@H]3CC[C@H](C(=O)O)CC3)CC2)NC(c2nccs2)=NC1c1ccc(F)cc1Cl` (stereo partly drawn) [Compound 422, trans-4-(((4-(6-(2-chloro-4-fluorophenyl)-5-(methoxycarbonyl)-2-(thiazol-2-yl)-3,6-dihydropyrimidin-4-yl)piperidinyl)sulfonyl)methyl)cyclohexane-1-carboxylic Acid]: in data set [1], the EC50 stood at 27 nM. Also, in data set [2], it took 26.9 µM to reach half-maximal cytotoxicity (CC50 at 6 days).

Take `COC(=O)C1=C(C23CC(C(C)O)(C2)C3)NC(c2nccs2)=NC1c1ccc(F)cc1Cl` (stereo not drawn) [Compound 348B, Methyl 4-(2-chloro-4-fluorophenyl)-6-(3-(1-hydroxyethyl)bicyclo[1.1.1]pentan-1-yl)-2-(thiazol-2-yl)-1,4-dihydropyrimidine-5-carboxylate]: the EC50 in data set [1] came out at 63 nM. The molecule further registered a CC50 at 6 days in data set [2] of 25 µM.

In the case of `COC(=O)C1=C([C@H]2CC[C@H](S(=O)(=O)NCC(C)(C)C(=O)OC(C)(C)C)CC2)NC(c2nccs2)=NC1c1ccc(F)c(F)c1Cl` (single isomer, unassigned) [Compound 361X, (trans)-methyl 6-(4-(N-(3-(tert-butoxy)-2,2-dimethyl-3-oxopropyl)sulfamoyl)cyclohexyl)-4-(2-chloro-3,4-difluorophenyl)-2-(thiazol-2-yl)-1,4-dihydropyrimidine-5-carboxylate], the EC50 in data set [1] was determined as 87 nM. In data set [2], this molecule gave a cytotoxic concentration (CC50) at 6 days of over 100 µM.

`CCOC(=O)C1=C(C2CCN(S(=O)(=O)[C@H]3CC[C@@H](C(=O)O)CC3)CC2)NC(c2nccs2)=NC1c1ccc(F)c(F)c1Cl` (relative stereo) [Compound 354B, (cis)-4-((4-(6-(2-Chloro-3,4-difluorophenyl)-5-(ethoxycarbonyl)-2-(thiazol-2-yl)-3,6-dihydropyrimidin-4-yl)piperidin-1-yl)sulfonyl)cyclohexane-carboxylic Acid]: in data set [1], the EC50 was 18 nM. The same molecule had a CC50 at 6 days in data set [2] of 7 µM.

Consider `COC(=O)C1=C(C2CCN(S(=O)(=O)c3cnn(CC(O)C(F)(F)F)c3)CC2)NC(c2nccs2)=NC1c1ccc(F)c(F)c1Cl` (stereo not drawn) [Compound 325, Methyl 4-(2-chloro-3,4-difluorophenyl)-2-(thiazol-2-yl)-6-(1-((1-(3,3,3-trifluoro-2-hydroxypropyl)-1H-pyrazol-4-yl)sulfonyl)piperidin-4-yl)-1,4-dihydropyrimidine-5-carboxylate], for which the EC50 in data set [1] came out at 5 nM. This molecule returned a CC50 at 6 days in data set [2] of 7.9 µM.

As for `CCOC(=O)C1=C(C2[C@H]3CN(S(C)(=O)=O)C[C@@H]23)NC(c2nccs2)=NC1c1ccc(F)cc1Cl` (single isomer, unassigned) [Compound 41A], the EC50 in data set [1] was 514 nM. Also, the CC50 at 6 days in data set [2] came to 11.6 µM.

`COC(=O)C1=C(C2CCN(S(=O)(=O)c3cnn(Cc4ncco4)c3)CC2)NC(c2nccs2)=NC1c1ccc(F)c(F)c1Cl` (stereo not drawn) [Compound 465, Methyl 4-(2-chloro-3,4-difluorophenyl)-6-(1-((1-(oxazol-2-ylmethyl)-1H-pyrazol-4-yl)sulfonyl)piperidin-4-yl)-2-(thiazol-2-yl)-1,4-dihydropyrimidine-5-carboxylate]: in data set [1], the EC50 stood at 9 nM. Besides, half-maximal cytotoxicity in data set [2] (CC50 at 6 days) was put at 35.2 µM.

With `COC(=O)C1=C([C@H]2CC[C@H](N(C)S(C)(=O)=O)CC2)NC(c2nccs2)=NC1c1ccc(F)cc1Cl` (single isomer, unassigned) [Compound 388B, (trans)-Methyl 4-(2-chloro-4-fluorophenyl)-6-(4-(N-methylmethylsulfonamido)cyclohexyl)-2-(thiazol-2-yl)-1,4-dihydropyrimidine-5-carboxylate], the concentration for a half-maximal effect (EC50) in data set [1] was determined as 28 nM. In data set [2], this molecule showed a CC50 at 6 days of 27.8 µM.

The values above are taken from patent publication US11639350B2, “Heteroaryldihydropyrimidine derivatives and methods of treating hepatitis B infections” (Janssen Pharmaceutica NV, priority 2018, dated 2023).
